Values quoted from earlier work in patent US20100323985A1, “PHARMACEUTICAL OR COSMETIC PREPARATIONS FOR TOPICAL AND/OR PARENTERAL APPLICATION, PREPARATION METHODS THEREOF AND USE OF SAME” (priority 2007, published 2010).

Columns and labels:
[1] = humans
[2] = in vivo

## hyaluronic acid
[1]
  excretion in the urine: less than 1 % of total clearance
[2]
  immunogenicity: no immunogenicity
  tolerance: very good
